One test concerns the target Kelch domain of Keap1. The settings on record: ITC; ref [79]; cited from earlier work.
The subject of a further test is Keap1. The settings on record: cited from earlier work; for competition with full-length Nrf2 for binding to Keap1: compared with 10-mer peptide (LDEETGEFLP), ref [79].
Test [1] deals with Kelch domain of mouse Keap1 (residues 324–612). Put plainly: ITC binding of mouse peptides to Kelch domain of Keap1. The protocol: The Kelch domain (residues 324–612) of mouse Keap1 was expressed in Escherichia coli BL21 (DE3) grown in minimal M9 medium. The N-terminally His-tagged protein was purified by affinity chromatography using Ni Sepharose™ 6 Fast Flow beads (Amersham Biosciences). The tag was then cleaved by incubation with His-tagged tobacco etch virus (TEV) protease overnight at 25°C. The protein product was purified by passing the mixture through Ni Sepharose™ 6 Fast Flow beads (Amersham Biosciences).
ITC experiments were performed on a VP-ITC system (MicroCal) at 25°C. The Kelch domain was dialyzed against 50 mM phosphate buffer at pH 7, containing 100 mM NaCl and 1 mM DTT. Mouse ProTα (Ala-39 to Asp-54) and Neh2 (Leu-76 to Leu-84) peptides (GenScript) were also dissolved in the same buffer. All samples were filtered and degassed before the ITC experiments. […] Heat changes after saturation were used to account for the heat of dilution. The binding stoichiometries (n), enthalpy changes (ΔH), binding constants (Ka), Gibbs free energy changes (ΔG) and entropy changes (ΔS) were calculated using the titration data.
Supplementary file pone.0027371.s006.tif: Figure S4 Isothermal titration calorimetry (ITC) measurements. […] (Upper) The raw data of two ITC experiments each performed at 25°C. (Lower) The integrated heat changes, corrected for the heat of dilution, and the fitted curve assuming single-site binding. (TIF) Click here for additional data file.

Test [2] concerns Nrf2-targeted cytoprotective genes. The settings on record: ref [49], [50]; cited from earlier work. The text has this: The Keap1-binding motif of ProTα (-NEENGE-) shares a similar sequence with that of the Neh2 ...
For test [3], the target named is Keap1 Kelch (Homo sapiens) (UniProt Q14145). The test can be described thus: ITC. The settings on record: cited from earlier work.
Sequence of Keap1 Kelch (Homo sapiens) (Q14145 321-609): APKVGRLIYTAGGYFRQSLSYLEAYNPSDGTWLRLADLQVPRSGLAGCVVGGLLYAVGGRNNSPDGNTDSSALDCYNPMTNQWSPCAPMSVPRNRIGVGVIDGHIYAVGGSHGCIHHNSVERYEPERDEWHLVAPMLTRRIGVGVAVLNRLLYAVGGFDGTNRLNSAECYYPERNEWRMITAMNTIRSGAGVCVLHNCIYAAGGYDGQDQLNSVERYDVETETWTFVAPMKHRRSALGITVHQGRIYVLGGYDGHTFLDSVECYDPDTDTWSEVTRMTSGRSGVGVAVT
Test [4] addresses Keap1 Kelch (Mus musculus) (UniProt Q9Z2X8). The settings on record: cited from earlier work.
For test [5] the target is unchanged. Put plainly: ITC. The settings on record: cited from earlier work.
The target in test [6] is T1, Kelch domain (residues 324–612) of mouse Keap1 (mouse, UniProt Q9Z2X8 324-612).
T1 construct: Kelch domain of Kelch-like ECH-associated protein 1 (Keap1), mouse, residues 324-612; His tag cleaved with TEV protease; also called Kelch-like ECH-associated protein 1; source: Escherichia coli BL21 (DE3) in minimal M9 medium, purified (Ni Sepharose, TEV cleavage, second Ni Sepharose pass); not shown: His tag, N-terminal, cleaved
T1 sequence (Q9Z2X8 324-612): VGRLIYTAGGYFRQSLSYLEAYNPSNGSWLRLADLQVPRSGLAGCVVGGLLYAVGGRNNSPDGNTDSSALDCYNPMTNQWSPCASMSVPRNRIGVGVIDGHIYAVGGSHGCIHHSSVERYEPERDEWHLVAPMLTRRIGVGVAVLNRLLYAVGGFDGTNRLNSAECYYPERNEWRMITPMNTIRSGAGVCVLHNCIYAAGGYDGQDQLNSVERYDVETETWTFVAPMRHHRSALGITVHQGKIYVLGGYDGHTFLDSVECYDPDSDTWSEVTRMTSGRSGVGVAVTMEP
The test can be described thus: ITC; VP-ITC (MicroCal), 25°C; 5 µL aliquots of 0.5 mM peptide titrated into 1.4 mL of 0.05 mM Kelch in the cell; 50 mM phosphate pH 7, 100 mM NaCl, 1 mM DTT; single-site fit. The settings on record: both partners purified.

Setting [7] is: ITC, T = 298 K, pH 7, 50 mM phosphate, 100 mM NaCl, 1 mM DTT.

Read-outs that look alike come from different tables or passages of the source.

Sequence of Keap1 Kelch (Mus musculus) (Q9Z2X8 309-624): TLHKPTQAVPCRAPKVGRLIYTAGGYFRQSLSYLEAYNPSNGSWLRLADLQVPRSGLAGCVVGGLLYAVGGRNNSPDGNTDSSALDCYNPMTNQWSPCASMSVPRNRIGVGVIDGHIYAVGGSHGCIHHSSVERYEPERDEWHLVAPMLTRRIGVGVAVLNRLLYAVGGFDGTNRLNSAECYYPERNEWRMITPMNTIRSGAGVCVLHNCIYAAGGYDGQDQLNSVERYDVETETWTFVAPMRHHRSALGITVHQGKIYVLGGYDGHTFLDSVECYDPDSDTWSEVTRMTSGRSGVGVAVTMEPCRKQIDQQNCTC

As to AFFAQLQLDEETGEFL, at Kelch domain of Keap1, the equilibrium dissociation constant (Kd) was about 20 nM. The “competition with full-length Nrf2 for binding to Keap1” value with Keap1 was “could compete with full-length Nrf2 for binding to Keap1 much better than a 10-mer peptide (LDEETGEFLP)”.
For the molecule “AQNEENGEQEADNEVD [16-mer ProTα peptide, Mouse ProTα (Ala-39 to Asp-54) peptide (GenScript)]”, the “relative binding to Keap1” value in test [1] (16-mer ProTα vs Neh2 peptide with the same length, own ITC compared with ref [79]) is listed as “interacts more weakly with Keap1 compared to the Neh2 peptide with the same length”. Moreover, in test [1] (ITC (VP-ITC), 25°C (T = 298 K), 50 mM phosphate pH 7, 100 mM NaCl, 1 mM DTT, 0.5 mM peptide titrated into 0.05 mM Kelch, single-site fit), the “Ka (binding constant)” value is given as 2.4 ± 0.1 10^6 M^−1. Further, in test [1] (setting [7]), the “TΔS (entropy change upon binding)” value was -10.20 kcal/mol and the “ΔG (Gibbs free energy change upon binding)” value is -8.70 ± 0.02 kcal/mol.
Consider LQLDEETGEFLPIQ, for which the “competition with full-length Nrf2 for binding to Keap1” value with Keap1 was “could compete with full-length Nrf2 for binding to Keap1 much better than a 10-mer peptide (LDEETGEFLP)”.
For “MSDAAVDTSSEITTKDLKEKKEVVEEAENGRDAPANGNAQNEENGEQEADNEVDEEEEEGGEEEEEEEEGDGEEEDGDEDEEAEAPTGKRVAEDDEDDDVDTKKQKTEEDD [Full-length ProTα, Prothymosin alpha, full-length mouse ProTα protein, simulated]”, the Nrf2-targeted cytoprotective genes result in test [2] is on record as “upregulation of Nrf2-targeted cytoprotective genes”. Besides, the “competition with Nrf2 for binding to Keap1” value with Keap1 (ref [49], [50]) is reported as “can compete with Nrf2 for binding to Keap1”.
“Nrf2 16-mer peptide 16-mer ETGE peptide (from UniProt Q16236)”: the dissociation constant Kd in test [3] was 20 nM.
On to “Nrf2 Neh2 (DLG motif) Neh2 (from UniProt Q60795)”, for which the Kd in test [4] was 500 nM.
For “Nrf2 Neh2 (ETGE motif) Neh2 (from UniProt Q60795)”, the dissociation constant Kd in test [5] is 8 nM.

B1: 16-mer ProTα peptide (mouse), Ala-39 to Asp-54 (peptide)
peptide: AQNEENGEQEADNEVD
notes: Prothymosin alpha (ProTα), mouse, residues 39-54; also called Prothymosin alpha peptide; source: synthetic peptide; bought: GenScript
Take B1: in test [6], the Ka was determined as 2.4e+06 ± 0.1 M⁻¹, the dH is -18.9 ± 0.1 kcal/mol and the “stoichiometry N” value turned out to be 1.03.

Values taken from article PMC3220680, “Microsecond Molecular Dynamics Simulations of Intrinsically Disordered Proteins Involved in the Oxidative Stress Response” (PLoS ONE, 2011).
